According to ChEMBL document CHEMBL1147457, “Thiourea inhibitors of herpes viruses. Part 2: N-Benzyl-N'-arylthiourea inhibitors of CMV” (Bioorg Med Chem Lett, 2004):

Assays:
[1] = Inhibitory activity against MTS host cell toxicity was determined; type: functional
Human alphaherpesvirus 3 = assay: Inhibitory activity against varicella zoster virus was determined; type: functional, organism-based
[2] = tested on: Respiratory syncytial virus; assay: Inhibitory activity against respiratory syncytial virus was determined; type: functional, organism-based; conditions: human respiratory syncytial virus
Human alphaherpesvirus 2 = assay: Inhibitory activity against herpes simplex virus was determined; type: functional, organism-based
Cytomegalovirus = assay: Inhibitory activity against cytomegalo virus was determined; type: functional, organism-based; conditions: Human betaherpesvirus 5

Row | SMILES | IC50 (Human alphaherpesvirus 3) | IC50 [2] | IC50 (Human alphaherpesvirus 2) | IC50 (Cytomegalovirus) | IC50 [1]
1 | CC(C)(/N=C(\S)Nc1ccc(NC(=O)c2csnn2)cc1)c1cc(C(F)(F)F)cc(C(F)(F)F)c1 | > 3.7 µM | > 5 µM | > 5 µM | 0.004 µM | > 7.5 µM
2 | C[C@H](/N=C(\S)Nc1ccc(NC(=O)c2cscn2)nc1)c1cc(C(F)(F)F)cc(C(F)(F)F)c1 | > 3.7 µM | > 5 µM | > 5 µM | 0.002 µM | > 7.5 µM
3 | O=C(Nc1ccc(N/C(S)=N/Cc2cc(C(F)(F)F)cc(C(F)(F)F)c2)cc1)c1csnn1 | > 5 µM | > 5 µM | > 5 µM | 0.002 µM | 
4 | O=C(Nc1ccc(N/C(S)=N/Cc2cc(C(F)(F)F)cc(C(F)(F)F)c2)cn1)c1csnn1 | > 3.7 µM | > 5 µM | > 5 µM | 0.0044 µM | > 7.5 µM
5 | C[C@H](/N=C(\S)Nc1ccc(NC(=O)c2csnn2)nc1)c1cc(C(F)(F)F)cc(C(F)(F)F)c1 | > 3.7 µM | > 5 µM | 4.1 µM | 0.003 µM | 8 µM
6 | O=C(Nc1ccc(/N=C(\S)Nc2cc(C(F)(F)F)cc(C(F)(F)F)c2)cc1)c1csnn1 | > 5 µM | 5 µM | > 5 µM | 0.037 µM | 
7 | O=C(Nc1ccc(N/C(S)=N/C(c2ccccc2)c2cc(C(F)(F)F)cc(C(F)(F)F)c2)cc1)c1csnn1 (configuration not stated) | > 3.7 µM | > 5 µM | > 5 µM | 0.002 µM | > 7.5 µM
8 | O=C(Nc1ccc(/N=C(\S)Nc2cc(C(F)(F)F)cc(C(F)(F)F)c2)cc1)c1cscn1 | > 5 µM | > 5 µM | > 5 µM | 0.016 µM | 
9 | CCC(/N=C(\S)Nc1ccc(NC(=O)c2cscn2)cc1)c1cc(C(F)(F)F)cc(C(F)(F)F)c1 (configuration not stated) | > 3.7 µM | > 5 µM | 4.1 µM | 0.0002 µM | > 7.5 µM
10 | C[C@@H](/N=C(\S)Nc1ccc(NC(=O)c2cscn2)nc1)c1cc(C(F)(F)F)cc(C(F)(F)F)c1 | > 3.7 µM | 1 µM | > 5 µM | 0.0028 µM | > 7.5 µM

Further lines, with some results ahead:

Row | IC50 (Human alphaherpesvirus 3) | IC50 [2] | IC50 (Human alphaherpesvirus 2) | IC50 (Cytomegalovirus) | SMILES | IC50 [1]
11 | > 3.7 µM | > 5 µM | > 5 µM | 0.003 µM | CC(/N=C(\S)Nc1ccc(NC(=O)c2csnn2)cc1)c1cc(C(F)(F)F)cc(C(F)(F)F)c1 (configuration not stated) | > 7.5 µM
12 | > 3.7 µM | > 5 µM | 5 µM | 0.001 µM | CCC(/N=C(\S)Nc1ccc(NC(=O)c2csnn2)cc1)c1cc(C(F)(F)F)cc(C(F)(F)F)c1 (configuration not stated) | > 7.5 µM
13 | > 3.7 µM | 2 µM | > 5 µM | 0.0015 µM | C[C@@H](/N=C(\S)Nc1ccc(NC(=O)c2cscn2)cc1)c1cc(C(F)(F)F)cc(C(F)(F)F)c1 | > 7.5 µM
14 | > 3.7 µM | > 5 µM | > 5 µM | 0.0006 µM | C[C@H](/N=C(\S)Nc1ccc(NC(=O)c2cscn2)cc1)c1cc(C(F)(F)F)cc(C(F)(F)F)c1 | > 7.5 µM
15 | > 3.7 µM | > 5 µM | > 5 µM | 0.001 µM | CCCC(/N=C(\S)Nc1ccc(NC(=O)c2csnn2)cc1)c1cc(C(F)(F)F)cc(C(F)(F)F)c1 (configuration not stated) | > 7.5 µM
16 | > 3.7 µM | > 5 µM | > 5 µM | 0.003 µM | C[C@H](/N=C(\S)Nc1ccc(NC(=O)c2csnn2)cc1)c1cc(C(F)(F)F)cc(C(F)(F)F)c1 | > 7.5 µM
